Source: US10103402B2, “Liquid phenothiazine catholytes for non-aqueous redox flow batteries” (University of Kentucky Research Foundation, priority 2015, dated 2018)

Tests used:
[1] = cited from earlier work
[2] = Cyclic voltammetry, half-wave oxidation potentials; type: physicochemical; conditions: for E1/2^+/0 vs. Li^+/0, LiBF4 in PC: 10 mM analyte in 0.5M LiBF4/PC, 100 mV/s; for Oxidation potential higher than EPT, LiPF6/EC/EMC: difference of E1/2^+/0 to EPT in LiPF6/EC/EMC; for Oxidation potential higher than EPT, TBA-PF6/DCM: difference of E1/2^+/0 to EPT in TBA-PF6/DCM
Protocol: The compounds of the present invention provide for components of a redox flow battery system, particularly as part of a catholyte composition. The studies described herein detail their effectiveness for such. The position and reversibility of redox events was determined by cyclic voltammetry (CV), performed in dichloromethane (DCM) containing 0.1 M tetra(n-butyl)ammonium hexafluorophosphate (TBA-PF6) (FIG. 7), in EC/EMC (3:7) containing 1.2 M LiPF6 (FIG. 2), or in propylene carbonate (PC) containing 0.5 M LiBF4 (FIG. 2). Both compounds show reversible first oxidations in all electrolytes. In TBA-PF6/DCM, MEPT (E1/2^+/0=0.30 V vs. Cp2Fe^+/0) and MEEPT (E1/2^+/0=0.29 V vs. Cp2Fe^+/0) oxidize at 0.03 and 0.02 V higher, respectively, than EPT (Table 1). In contrast, though the oxidation potentials of the new compounds were still higher than that of EPT in LiPF6/EC/EMC, a larger difference was observed: MEPT (E1/2^+/0=3.56 V vs. Li^+/0) and MEEPT (E1/2^+/0=3.60 V vs. Li^+/0) oxidized at […] higher, respectively, than EPT (Table 1). The increase in oxidation potential in the lithium-based electrolytes can be attributed to the coordination, through the oligoether side chain, of MEPT to Li^+, a characteristic that is even more pronounced in the case of MEEPT.
(§1) Cyclic voltammetry (CV) experiments were performed using a CH Instruments 600D potentiostat using a three-electrode system in either 100 mM TBAPF6 in anhydrous DCM or in 1.2 M LiPF6 in ethylene carbonate (EC)/ethyl methyl carbonate (EMC) (3:7 wt. ratio) containing […] redox shuttle. Cyclic voltammograms were also recorded in 0.5 M LiBF4 in propylene carbonate (PC) containing 10 mM analyte. Glassy carbon was used as the working electrode, platinum wire as the counter electrode and either freshly anodized Ag/AgCl (in DCM) or lithium metal (in battery electrolyte) as reference electrodes. Oxidation potentials are reported relative to ferrocenium/ferrocene) (Cp2Fe^+/0) in DCM or to Li^+/0 in battery electrolyte. Voltammograms were recorded at a scan rate of 100 mV/s. To determine diffusion coefficients, voltammograms were recorded at variable rates between 5 and 500 mV/s at analyte concentration of 80 mM in 1.2 M LiPF6 in EC/EMC and 10 mM in 0.5 M LiBF4 in PC.

[3] = Cyclic voltammetry at variable scan rates, diffusion coefficients; type: physicochemical; conditions: for Diffusion Coefficient, neutral, TBA-PF6 in DCM / Diffusion Coefficient, oxidized, TBA-PF6 in DCM: 10 mM analyte in 100 mM TBA-PF6/DCM, 10 to 200 mV/s; for Diffusion Coefficient, neutral, LiBF4 in PC / Diffusion Coefficient, oxidized, LiBF4 in PC: 10 mM analyte in 0.5M LiBF4/PC; for Diffusion Coefficient, neutral, LiBF4 in PC / Diffusion Coefficient, neutral, LiPF6 in EC/EMC / Diffusion Coefficient, oxidized, LiBF4 in PC / Diffusion Coefficient, oxidized, LiPF6 in EC/EMC: 5 to 500 mV/s; for Diffusion Coefficient, neutral, LiPF6 in EC/EMC / Diffusion Coefficient, oxidized, LiPF6 in EC/EMC: 80 mM analyte in 1.2M LiPF6 in EC/EMC (3:7)
Protocol: MEPT and MEEPT were subjected to CV experiments at variable scan rates in the carbonate-based electrolytes and DCM to determine their diffusion coefficients (FIG. 2, 8). At 80 mM, MEPT and MEEPT diffuse more slowly than EPT. This observation can be explained by the interaction of MEPT and MEEPT with a lithium ion from the electrolyte, which increases the size/molecular weight of the shuttle. Because the additional oxygen in MEEPT enhances the ability for Li^+ chelation, this effect is posited to be responsible for the further reduction in its diffusion rate.
as §1

[4] = Solubility / miscibility in battery electrolyte and organic solvents; type: physicochemical; conditions: for Concentration corresponding to 50 wt. % miscibility: 1.2 M LiPF6 in EC/EMC (3:7 wt. ratio)
Description: The compounds of the present invention can be prepared by deprotonation of phenothiazine and a subsequent SN2 reaction with a corresponding alkyl halide. This process has produced MEPT and MEEPT in good yields. The compounds were isolated as colorless oils that were miscible with a variety of organic solvents. Both derivatives were miscible up to 50 wt. % in the common battery electrolyte, 1.2 M LiPF6 in ethylene carbonate/ethyl methyl carbonate (EC/EMC, 3:7 wt. ratio) (Table 1), which corresponds to a concentration of ca. 2 M. In contrast, the solubility of EPT is limited to 0.1 M in the same electrolyte.
Next, to evaluate MEPT and MEEPT as cathode candidates for RFBs, the performance of the redox-active species over multiple charge and discharge cycles was analyzed, albeit in a static environment, using galvanostatic cycling in MEPT/Li and MEEPT/Li coin cells. Here we employed the electrolyte 0.5 M LiBF4 in PC in which both MEPT and MEEPT are miscible at as high as 50 wt. % (Table 1). The positive electrode was composed of graphite felt soaked in catholyte consisting of 10 mM active species in 0.5 M LiBF4 in PC, and Li metal was employed as the negative electrode. The electrodes were separated by a lithiated Nafion membrane. The coin cells were cycled between 3.2 and 3.8 V at a rate of C/5 up to 100% SOC so that the first oxidation would be accessed. The theoretical capacities of EPT, MEPT, and MEEPT are 118 mAh/g, 104 mAh/g, and 89 mAh/g, respectively. The charge and discharge plateaus occur in accordance with the potentials determined by CV; they represent the formation and reversible reduction of the respective radical cations. […] The gap between the charge and discharge capacities may result from crossover of the charged species. […] EPT, MEPT, and MEEPT retained ca. 76%, 68% and 67%, respectively, of the original charge capacity after 30 cycles, over which time the coulombic efficiencies for all three catholytes stabilized at ca. 90%.

[5] = Radical cation stability by UV-vis absorption spectroscopy; type: physicochemical; conditions: 0.167 mM radical cation in DCM, oxidation with TBPA-SbCl6, monitored 5 h
Description: The stability of the radical cation—typically the more reactive form of the electro-active material—can be monitored using UV-vis absorption spectroscopy as these species absorb light in the visible region. This method has proven to be useful for the evaluation of redox shuttle candidates for overcharge protection in LIBs, another application in which the radical cation is involved in electron transfer. The stability of the EPT, MEPT, and MEEPT radical cations were compared in dilute dichloromethane solutions after generation through chemical oxidation with tris(4-bromophenyl)aminium hexachloroantimonate (TBPA-SbCl6).
UV-vis spectra were collected using optical glass cuvettes (Starna) with 1 cm path length with an Agilent 8453 diode array spectrometer. Radical cations were generated in anhydrous DCM by the addition of a 1 mL DCM solution of 0.50 mM TBPA-SbCl6 to a 2 mL DCM solution containing 2.5 mM analyte to produce a final solution containing 0.17 mM radical cation with 1.7 mM analyte, which generates 0.17 mM analyte radical cation with a 9-fold excess of neutral analyte. The cuvettes were capped, and spectra were collected for 5 h.

[6] = carbonate-based electrolytes; cited from earlier work
[7] = Cyclic voltammetry, half-wave oxidation potentials; type: physicochemical; conditions: for E1/2^+/0 vs. Cp2Fe^+/0 in TBA-PF6 in DCM: 80 mM analyte in 100 mM TBA-PF6/DCM, 100 mV/s scan rate; for E1/2^+/0 vs. Li^+/0, LiPF6 in EC/EMC: 80 mM analyte in 1.2M LiPF6 in EC/EMC (3:7 wt. ratio), 100 mV/s

Row | Compound | Solubility in organic solvents and electrolytes ([1]; organic solvents and electrolytes) | E1/2^+/0 vs. Li^+/0, LiBF4 in PC [2] | Diffusion Coefficient, neutral, TBA-PF6 in DCM [3] | Diffusion Coefficient, neutral, LiBF4 in PC [3] | Diffusion Coefficient, neutral, LiPF6 in EC/EMC [3] | Diffusion Coefficient, oxidized, TBA-PF6 in DCM [3] | Diffusion Coefficient, oxidized, LiBF4 in PC [3] | Diffusion Coefficient, oxidized, LiPF6 in EC/EMC [3] | Solubility 0.5M LiBF4 in PC ([4]; 0.5 M LiBF4 in PC) | Radical cation stability, change of absorption spectra [5] | Oxidation potential vs. Li^+/0 [6] | E1/2^+/0 vs. Cp2Fe^+/0 in TBA-PF6 in DCM [7] | E1/2^+/0 vs. Li^+/0, LiPF6 in EC/EMC [7] | Solubility in organic solvents ([1]; organic solvents) | Oxidation potential higher than EPT, LiPF6/EC/EMC [2] | Oxidation potential higher than EPT, TBA-PF6/DCM [2] | Concentration corresponding to 50 wt. % miscibility [4]
1 | CCN1c2ccc(C(F)(F)F)cc2Sc2cc(C(F)(F)F)ccc21 [BCF3EPT, 3,7-bis(trifluoromethyl)-N-ethylphenothiazine] | 1500 to 2000 mM |  |  |  |  |  |  |  |  |  |  |  |  |  |  |  | 
2 | CCN1c2ccccc2Sc2ccccc21 [EPT, N-ethylphenothiazine, reference compound] |  | 3.60 V | 3.9 ×10^−6 cm^2s^−1 | 1.5 ×10^−6 cm^2s^−1 | 1.0 ×10^−6 cm^2s^−1 | 2.4 ×10^−6 cm^2s^−1 | 1.4 ×10^−6 cm^2s^−1 | 0.7 ×10^−6 cm^2s^−1 | ≤ 0.1M | remain almost unchanged | ca. 3.5 V | 0.27 V | 3.51 V | ca. 0.1 M |  |  | 
3 | COCCOCCN1c2ccccc2Sc2ccccc21 [MEEPT, N-[2-(2-methoxyethoxy)ethyl]phenothiazine] |  | 3.64 V | 2.5 ×10^−6 cm^2s^−1 | 0.7, 0.7 ×10^−6 cm^2s^−1 | 0.2 ×10^−6 cm^2s^−1 | 1.6 ×10^−6 cm^2s^−1 | 0.7, 0.7 ×10^−6 cm^2s^−1 | 0.1 ×10^−6 cm^2s^−1 |  | remain almost unchanged |  | 0.29 V | 3.60 V |  | 0.09 V | 0.02 V | ca. 2 M
4 | COCCN1c2ccccc2Sc2ccccc21 [MEPT, N-(2-methoxyethyl)phenothiazine] |  | 3.64 V | 3.7 ×10^−6 cm^2s^−1 | 1.1 ×10^−6 cm^2s^−1 | 0.4 ×10^−6 cm^2s^−1 | 2.6 ×10^−6 cm^2s^−1 | 1.0 ×10^−6 cm^2s^−1 | 0.2 ×10^−6 cm^2s^−1 |  | remain almost unchanged |  | 0.30 V | 3.56 V |  | 0.06 V | 0.03 V | ca. 2 M
